Experimental data as given in patent publication US8314082B2, “Stilbene derivatives for ADP-ribosyl cyclase inhibitors” (Industrial Cooperation Foundation Chonbuk National …, priority 2006, dated 2012).

Key:
[1] = test system: 2 kidney 1 clip hypertensive rat model; experiment: Systolic blood pressure in 2 kidney 1 clip hypertensive rat model; format: in vivo, Sprague-Dawley male rats; conditions: intraperitoneal 428 μg/200 g/d, from day 7 after surgery for 7 weeks, tail plethysmography
Experimental: Renovascular hypertension was produced by 2KlC Sprague-Dawley male rats (7-9 weeks old) weighing 200 to 220-g were anesthetized with ketamine (100 mg/kg, intra-peritoneally) and rumpen (5 mg/kg, intraperitoneally). The left kidney was exposed through the median abdominal incision, and the renal artery was separated from the renal vein with caution. Then, a silver clip with 0.15 mm slit was placed around the renal artery. The sham procedure was performed, including the entire surgery with the exception of arterial clipping. To examine the effect of 2,2′-DHAB in the 2KlC model, we administered it at days 7 after the surgery for 7 weeks. 2,2′-DHAB was injected intraperitoneally with 58% DMSO plus saline at a dose of 1.5 μl/g body weight (428 μg/200 g/d). Sham group and control 2KlC received DMSO plus saline treatment. The dose of injected DMSO had no side effect on blood pressure (BP) or any other parameters. Systolic blood pressure was measured by a method using tail plethysmography in conscious rats once a week, from the day prior to surgery until the day of sacrifice.

[2] = test system: ADPR-cyclase purified partially from rat brain; experiment: ADPR-cyclase activity assay, brain enzyme; format: biochemical; set-up: dose or concentration left out as unconfirmed
Experimental: FIGS. 1A and 1B show the inhibition of rat kidney ADPR-cyclase that was incubated with […] NGD^+ or e-NAD^+ in the presence of various concentrations of 4,4′-dihydrioxyazobenzene (DHAB) at 37° C. for 10 min and effects of DHAB on human CD38, rat brain, heart, spleen, and kidney ADPR-cyclase. FIGS. 1A and 1B are referred to as FIG. 1 herein.
Specific ADPR-cyclase activity was determined by measuring cyclic GDP-ribose (cGDPR) or etheno-ADP-ribose (e-cADPR) fluorometrically using NGD^+ or e-NAD^+ as a substrate [Greaff et al., Biochem. J. (2002)361:379-84]. Samples were incubated in the presence […] NGD^+ or e-NAD^+ with and without an appropriate agent in an assay buffer (25 mM HEPES, pH 7.4, 100 mM NaCl, and 0.1% Triton X-100) in a […]. The reaction mixture was incubated at 37° C. for 10 min. The reaction was stopped by adding […] trichloroacetic acid (10%). […] Fluorescence of cGDPR or e-ADPR in the solution was determined at excitation/emission wavelengths of 297/410 nm (HITACHI F-2000 fluorescence spectrophotometer). cADPR-hydrolase activity was determined by incubating cADPR with ADPR-cyclase or CD38 at 37° C. for 20 min. Hydrolysis of cADPR was analyzed by high performance liquid chromatography as described (White et al., 2000). […]

sensitivity of enzyme activity to compound [2] | SMILES | effect on elevation of systolic blood pressure [1]
 | Oc1ccccc1/N=N/c1ccccc1O [2,2′-DHAB, 2,2′-Dihydroxyazobenzene] | prevented the elevation of blood pressure
insensitive | Oc1ccc(N=Nc2ccc(O)cc2)cc1 [4,4′-DHAB, 4,4′-Dihydroxyazobenzene] | 
